According to ChEMBL document CHEMBL3507680, “University of Dundee, Gates Library screen for HepG2 cell viability”:

assay: Human HepG2 cell viability assay in 384 well format; type: toxicity, cell-based; design: dose 125 nL, time 70.5 hour; cytotoxicity at 70.5 h: concentration not given beside the values; settings: HepG2 cells, read-out: Inhibition

In order of rising cytotoxicity at 70.5 h:
1. CCn1nccc1CNc1[nH]cnc2nncc1-2  -20.2%
2. Cc1ccc(-c2nnc(NC(=O)c3ccn(C)c(=O)c3)[nH]2)s1  -19.1%
3. O=C(NCC(=O)N1CCCC1)c1nc(Cc2c(Cl)cccc2Cl)no1  -16.3%
4. COC(=O)[C@H](C)NC(=O)COc1nn(C)c2nc(C)cc(C)c12  -16.3%
5. CCc1nc(C2CCCN(c3ncc(Br)cn3)C2)no1 (configuration not stated)  -14.4%
6. Cc1nc(CNC(=O)NC2CCCN(c3ncccn3)C2)cs1 (configuration not stated)  -14.1%
7. Cc1ccnn1CCC(=O)N1CCN(C2CCc3ccccc3C2)CC1 (configuration not stated)  -12.6%
8. COc1cccc(OCC2CCCN(c3cc(C(N)=O)ccn3)C2)c1 (configuration not stated)  -11.8%
9. CCCS(=O)(=O)N1CCC2(CC1)CCn1c(-c3cnn(C)c3)cnc12  -11.3%
10. CN(Cc1cnccn1)C(=O)[C@@]12CNC[C@@H]1CN(Cc1ccccc1)C2  -11.2%
11. CCCN(c1ccccc1C(=O)O)S(=O)(=O)c1cccc2cccnc12  -10.2%
12. O=C(Cn1cc(C(=O)O)ccc1=O)Nc1cc(F)ccc1F  -9.56%
13. Cc1nc(CCCNC(=O)C2CC(=O)N(C3CCCC3)C2)sc1C (configuration not stated)  -9.24%
14. CC/C=C(/C)C(=O)NCc1ccnc(OC)c1  -8.93%
15. CCc1cnc(CN2CCCC(c3cc(C)[nH]n3)C2)o1 (configuration not stated)  -8.59%
16. O=C(c1ccn(COc2ccc(F)cc2)n1)N1CCCC1  -7.86%
17. CN1CC(c2ccccc2)CC12CCN(C(=O)c1c(Cl)cnn1C)CC2 (configuration not stated)  -7.56%
18. N#Cc1ccnc(N2CCN(C(=O)NC3CCS(=O)(=O)C3)CC2)c1 (configuration not stated)  -7.36%
19. Cc1c(CNC(=O)C2CCCN2C(=O)C2CC2)oc2ccccc12 (configuration not stated)  -7.22%
20. c1ccc(-c2cc(CN3C[C@@H]4CC[C@H](C3)N(CC3CC3)C4)on2)cc1  -6.85%
21. COCC(=O)N1CCN(Cc2cc(F)cc(Br)c2)CC1  -6.59%
22. O=C(c1cc2c(s1)CCC2)N1CCC(c2cnccn2)CC1  -6.29%
23. O=C(CC1=CCCCC1)Nc1ncn(CC(=O)N2CCCCCC2)n1  -6.09%
24. Cc1cccc(S(=O)(=O)NC(=O)c2ccc3c(c2)nnn3C)c1  -5.75%
25. Cc1nn(-c2ccccc2)c(C)c1-c1ccnc(N2CCC(O)CC2)n1  -5.36%
26. CC(C)n1nc(Cn2cccn2)c2c1CN(C1CCOCC1)C2  -4.7%
27. Cc1cnc(-c2nc(NC3CCCC3)ncc2-c2onc(C)c2C)cn1  -4.47%
28. COc1cccc(N2CCN(C(=O)c3noc4c3CCCCC4)CC2)c1  -4.22%
29. Cc1ccsc1C(Cc1ccccc1)NC(=O)CNC(=O)C1CC1 (configuration not stated)  -3.91%
30. O=C(O)CN1CCc2onc(C(c3ccccc3)c3ccccc3)c2C1  -3.48%
31. Cn1ncc2c(NCCOCc3ccccc3)nc(C3CCCC3)nc21  -3.35%
32. COc1nc(N2CCN(C(C)=O)CC2)ncc1Br  -3.12%
33. O=C(CCNc1ncccn1)N1CCC(Nc2cccnn2)CC1  -2.9%
34. Cc1nc(CN2CCN(c3cc(CCN)ncn3)CC2)cs1  -2.73%
35. CC(O)(CCc1ccccc1)CNC(=O)c1ccsc1 (configuration not stated)  -2.72%
36. CN(C)C(C(=O)N1Cc2ccccc2C1)c1ccccc1F (configuration not stated)  -2.59%
37. COc1ccc(F)cc1CN1CCCC1Cn1nc(C)nc1C (configuration not stated)  -1.67%
38. COc1ccc(C2CCCN2Cc2nnnn2C2CC2)cc1OC (configuration not stated)  -0.63%
39. CN1CCN(c2ccncc2S(=O)(=O)N2CCCCC2)CC1  0.146%
40. CC1(C)COCCN1C(=O)Cc1cc(Cl)c2c(c1)OCCO2  0.881%
41. Cc1nnc2ccc(N3CCC(C(=O)Nc4nccs4)CC3)nn12  1.41%
42. O=C(C1CCC1)N1CCC(=O)N(C2CC2)Cc2cc(F)ccc21  1.48%
43. CC(=O)N1CCC2(CCN(C(=O)c3ccc(Cl)c(C(F)(F)F)c3)CC2)C1  1.62%
44. COCCN1CCCC(c2ncc(C(=O)N3CCOCC3)c(C)n2)C1 (configuration not stated)  1.77%
45. CN1CCN(c2ccnc3c(F)cc(Br)cc23)CC1  1.8%
46. COc1cccc(N2CCN(CC(O)c3ccc(C)cc3)CC2)c1 (configuration not stated)  3.16%
47. CN1CCC(c2cccc(Cc3ccccc3)n2)CC1  3.18%
48. CC(C)Cc1noc(CN2CCCC(Cn3cncn3)C2)n1 (configuration not stated)  3.45%
49. Cc1nc2cc(=O)[nH]n2c(C)c1CNC(=O)C(C)Cc1ccccc1 (configuration not stated)  3.77%
50. NCC(c1ccc(Cl)cc1)N1CCc2sccc2C1 (configuration not stated)  7.32%
51. CNc1ncc(CN(C)c2ncnc3onc(C)c23)cn1  8.52%
52. c1ccc(CO[C@@H]2CC[C@H]3[C@H]2OCCN3Cc2ccsc2)nc1  8.96%
53. CN(C)C(=O)c1cncnc1-c1ccc(CNC(=O)C2CCCO2)cc1 (configuration not stated)  10.6%
54. Cn1ccc(C(=O)N(CC(F)(F)F)c2cccc(Cl)c2)cc1=O  11.6%
55. CC[C@@H]1N(Cc2ccco2)CCC[C@]12CCC(=O)N2C  12.7%
56. CC(C1CCN(Cc2c(Cl)cncc2Cl)CC1)N1CCN(C)CC1 (configuration not stated)  14.7%
57. CCc1cnc(CN(C)C2CCN(CCn3cc(C#N)cn3)C2)o1 (configuration not stated)  16.4%
